Experiments:
mice = assay: Acute toxicity test in mice by intravenous administration; type: in vivo; details: dead/treated
Method: For example, in the acute toxicity test in mice by intravenous administration, the mortality of compound of example 1 and 1-3 are 0/6 and 0/6 at the dose of 100 mg/kg and are 6/6 and 4/6 at the dose of 200 mg/kg, respectively.

[1] = system: organ slice of cat cerebral cortex; assay: Inhibition test on cerebral edema using organ slice of cat cerebral cortex (NaHCO3-stimulated swelling); type: cell-based; details: Felis catus, 50 min, cat cerebral cortex slices, 50 minutes at 37° C., pH 7.4, swelling stimulated with NaHCO3; for IC50: read-out: inhibitory activity of cerebral edema (IC50); for inhibition at 0.01 µM: 10^-8 M, read-out: a percentage of inhibition of swelling at 10^-8 M (%)
Method: THE INHIBITION TEST ON CEREBRAL EDEMA USING ORGAN SLICE OF CAT CEREBRAL CORTEX
The test was carried out by the method described in Journal of Medicinal Chemistry, Vol. 25 (No. 5), 567 (1982).
That is, brain was isolated from a cat weighing 2~4 kg, slices of about 1 mm in thickness was prepared, the white matter substance was removed, and the gray matter substance (100~150 mg a test) was used for a sample. The sample was added to the following incubation medium and incuvated for 50 minutes at 37° C. After the incubation, the sample was immediately weighed again to determine the swelling weight of the sample.
(osmotic pressure, 280~290 mOsm/l)
1. Hepes Buffer (pH 7.4). . . 2.365 ml
adjusted to pH 7.4 by NaOH
2. test compounds [dissolved in the presence of tris(hydroxymethyl) aminomethane] or water. . . 0.01 ml
3. 0.2M NaHCO3 (dissolved by Hepes Buffer, giving the final concentration of 10 mM in medium) or Hepes Buffer. . . 0.125 ml
The test was carried out by using NaHCO3 as a stimulating agent of swelling.
(A) A percentage of swelling when a slice sample was added to incubation medium comprising Hepes Buffer, water and NaHCO3 (defined as maximum of swelling).
(B) A percentage of swelling when a slice sample was added to incubation medium comprising Hepes Buffer and water (defined as maximum inhibition of swelling).
(C) A percentage of swelling when a slice sample was added to incubation medium comprising Hepes Buffer, the test compounds in various concentrations and NaHCO3.
Above-mentioned (A), (B) and (C) were determined. Inhibition percentage of the test compounds was caliculated by the following equation: [formula] IC50 value was determined by dose-response curve as a concentration in which inhibition percentage was 50.
The results are shown Table I. And further, percentages of swelling of (C) was counted, in the case that concentration of test compound of (C) was 10^-8 M, and inhibition of swelling at the concentration of 10^-8 M was determined by percentages of swelling of both (A) and (B).

| IC50 [1] | Compound | mortality (mice; 100 mg/kg) | mortality (mice; 200 mg/kg) | inhibition at 0.01 µM [1] |
| --- | --- | --- | --- | --- |
| 2.6 nM | O=C(c1ccccc1F)c1ccc(O[C@H]2CC[C@H](C(=O)O)C2)c(Cl)c1Cl [Example 1-8, (1S,3S)-3-[{2,3-dichloro-4-(2-fluorobenzoyl)}phenoxy]cyclopentanecarboxylicacid] | – | – | 82% |
| – | O=C(c1cccc([N+](=O)[O-])c1)c1ccc(O[C@H]2CC[C@H](C(=O)O)C2)c(Cl)c1Cl [Example 1-12, (1S,3S)-3-[{2,3-dichloro-4-(3-nitrobenzoyl)}phenoxy]cyclopentanecarboxylic acid] | – | – | 52% |
| – | O=C(Cc1ccccc1)c1ccc(O[C@H]2CC[C@H](C(=O)O)C2)c(Cl)c1Cl [Example 1-13, (1S,3S)-3-[(2,3-dichloro-4-phenylacetyl)phenoxy]cyclopentanecarboxylic acid] | – | – | 36% |
| 4.1 nM | O=C(c1ccc(O[C@H]2CC[C@H](C(=O)O)C2)c(Cl)c1Cl)c1cccc2ccccc12 [Example 1-19, (1S,3S)-3-[{2,3-dichloro-4-(1-naphthoyl)}phenoxy]cyclopentanecarboxylic acid] | – | – | 90% |
| – | Cc1cccc(C(=O)c2ccc(O[C@H]3CC[C@H](C(=O)O)C3)c(Cl)c2Cl)c1 [Example 1-20, (1S,3S)-3-[{2,3-dichloro-4-(3-methylbenzoyl)}phenoxy]cyclopentanecarboxylicacid] | – | – | 78% |
| 3 nM | O=C(c1ccccc1)c1ccc(O[C@H]2CC[C@H](C(=O)O)C2)cc1Cl [Example 1-25, (1S,3S)-3-[(3-chloro-4-benzoyl)phenoxy]cyclopentanecarboxylic acid] | – | – | 100% |
| – | O=C(c1ccccc1)c1ccc(O[C@H]2CC[C@H](C(=O)O)C2)c2ccccc12 [Example 4, (1S,3S)-3-(4-benzoyl-1-naphthoxy)cyclopentanecarboxylic acid] | – | – | 41% |

| Compound | IC50 [1] | mortality (mice; 100 mg/kg) | mortality (mice; 200 mg/kg) | inhibition at 0.01 µM [1] |
| --- | --- | --- | --- | --- |
| O=C(c1ccccc1)c1ccc(O[C@H]2CC[C@H](C(=O)O)C2)c(Cl)c1Cl [Example 1, (1S,3S)-3-[(2,3-dichloro-4-benzoyl)phenoxy]cyclopentanecarboxylic acid] | 5.5 nM | 0/6 | 6/6 | – |
| O=C(c1cccs1)c1ccc(O[C@H]2CC[C@H](C(=O)O)C2)c(Cl)c1Cl [Example 1-3, (1S,3S)-3-[{2,3-dichloro-4-(2-thenoyl)}phenoxy]cyclopentanecarboxylic acid] | 2.2 nM | 0/6 | 4/6 | – |

Source: US4916147A, “3-[(4-Aroyl) phenoxy (or phenylthio)]-cyclopentanecarboxylic acid analogues and treatment of cerebral edema therewith” (Ono Pharmaceutical Co., Ltd., priority 1985, dated 1990)
